Like-named read-outs stand apart in the source and are kept apart here. Bridge positions count the residues as written; N and C are the ends.
Tests used:
[1] = test system: human melanoma xenografts (DM366 and DM738); experiment: Isolated limb infusion (ILI) of melphalan with or without systemic ADH-1 in nude rats bearing human melanoma xenografts; format: in vivo; conditions: day 60 after 15 minute regional infusion into the hind limb
[2] = test system: human melanoma cell line DM738; format: in vivo
[3] = test system: Ovarian Tumor Cell Line A2780; conditions: paclitaxel 30 mg/kg i.v. qodx5; ADH-1 100 mg/kg i.p. Day 1 then b.i.d.x20
Protocol: In this set of experiments, 100 mg/kg of ADH-1 was administered i.p. as a single dose on Day 1 and then […].) for the duration of the treatment period. 30 mg/kg paclitaxel was administered i.v. on a qodx5 schedule starting on Day 2. For the combination groups, paclitaxel was always administered 5 minutes after the morning ADH-1 dose.

A375 tumors = experiment: In vivo combination therapy of A375 tumors, ADH-1 with temozolomide; conditions: ADH-1 100 mg/kg i.p. qdx8; TMZ 100 mg/kg p.o. qdx5; administered separately
Protocol: 100 mg/kg of TMZ was administered p.o. on a qdx5 schedule starting on Day 4. For the combination groups, TMZ was always administered 1 hour after the ADH-1 dose. A375 tumors were resistant to both TMZ and ADH-1 when administered separately.

N[C@@H](Cc1ccc(N(CCCl)CCCl)cc1)C(=O)O [melphalan]
increase in tumor volume [1]: 439.4%
anti-tumor response ([2]; rat, in vivo): no detectable anti-tumor response

CC(=O)O[C@H]1C(=O)[C@@]2(C)[C@H]([C@H](OC(=O)c3ccccc3)[C@]3(O)C[C@H](OC(=O)[C@H](O)[C@@H](NC(=O)c4ccccc4)c4ccccc4)C(C)=C1C3(C)C)[C@]1(OC(C)=O)CO[C@@H]1C[C@@H]2O [paclitaxel]
complete cures out of 10 animals [3]: 10%
delay in tumor growth [3]: transient delay in tumor growth

N—Ac-CHAVC-NH2 (disulfide 1-5 (inferred)) [ADH-1]
anti-tumor response ([2]; DM738 tumors, single ILI of melphalan and/or systemic ADH-1, compared to vehicle control): no detectable anti-tumor response
tumor response to treatment (resistance) (A375 tumors): resistant

Source: patent US20080194467A1, “CANCER TREATMENT METHODS USING CADHERIN ANTAGONISTS IN COMBINATION WITH ANTICANCER AGENTS” (ADHEREX TECHNOLOGIES, INC., priority 2006, published 2008)
